How the values were obtained:
MCF7 cells = test: p53-mediated induction of checkpoint proteins (western blot); format: cell-based, human; settings: 10 μM
Protocol: (§1) FIGS. 6A-6E show physical association of DD1α with PD1 but not with PD-L1. (FIG. 6A) Interaction of DD1α with PD1 or DD1α. […] The bound Ig fusion proteins were detected with anti-Ig-APC. Empty vector (pcDNA3.1)-transfected cells stained with Ig proteins are shown as a negative control (gray filled) and other staining is shown as black open. (FIG. 6B) DD1α binds to both DD1α and PD1 on CD4+ T cells. Purified CD4+ T cells from Wt and DD1α−/− mice were assayed for binding to Ig fused DD1α or PD1 proteins. Cells were incubated with DD1α-Ig (open), PD1-Ig (open), or control Ig proteins (gray filled) and the bound Ig fusion proteins were detected by anti-Ig-APC. […] The bound Ig fusion proteins were detected by anti-Ig-APC. Binding amounts were determined by percentage of APC positive cells compared to control Ig protein-bound cells. (FIG. 6C) Ig-pulldown experiments show DD1α interaction with both DD1α and PD1. […] The bead bound proteins were eluted and determined by western blot analysis using anti-HA antibody (asterisks). […] The bead bound proteins were eluted and detected by western blot analysis with anti-DD1α or anti-PD1 antibody (asterisk). […] The levels of indicated proteins were analyzed by western blot analysis. Total RNAs from control siRNA or p53 siRNA transfected MCF7 cells were assessed for mRNA levels of PD1 or PD-L1 by real-time quantitative PCR. […]

[1] = target: mouse DD1α on mouse cells (CD4+ and CD8+ T cells, thymocytes, bone marrow-derived macrophages) (mouse) (UniProt Q9D659); test: cell-based or functional assay
[2] = test system: CD4+ or CD8+ T cells from wt- or DD1α−/− mice; test: Mouse T cell activation assay (CFSE proliferation); format: cell-based
Protocol: Enriched CD4+ and CD8+ T cells from Wt and DD1α−/− mice were stimulated, with 2.5 μg/ml anti-CD3 alone or together with DD1α-Ig or control Ig. The proliferations of CD4+ T cells (top graphs) or CD8+ T cells (bottom graphs) were determined by the percentage of CFSE-diluted CD8+ cells on day 3. The levels of cytokines (IFN-γ and TNF-α) in culture supernatant on day 2 were analyzed by ELISA. The results represent mean±SD from three experiments.
The inventors have discovered that DD1αregulates T cell activation through DD1α on T cells. […] The proliferations of CD4+ T cells were determined by percentage of CFSE-diluted CD4+ cells on day 3 and IFN-γ and levels in culture supernatants on day 2 were analyzed by ELISA. […] The proliferations of CD8+ T cells were determined by percentage of CD8+ T cells containing diluted CFSE signal on day 3. The cytokine levels in culture supernatant were analyzed by ELISA on day 2.
The amount of Ig protein was kept constant at 10 μg/ml by the addition of control Ig protein. Human CD4+ or CD8+ T cells were purified from freshly isolated PBMCs using CD4+ T Cell Isolation Kit II, human or CD8+ T Cell Isolation Kit, human (Miltenyi Biotec). Mouse CD4+ and CD8+ T cells were purified from splenocytes freshly isolated from mice using CD4+ T Cell Isolation Kit II, mouse or CD8a+ T Cell Isolation Kit II, mouse (Miltenyi Biotec). Purity was confirmed to be over 90% by flow cytometry. The T cells were labeled with 1 μM CFSE, quenched by cold FBS and incubated in the anti-CD3 & Ig proteins-coated plates. On day 2 after stimulation, supernatant was collected and cytokines were assayed by ELISA. On day 3, cells were stained with anti-CD4-APC (OKT4, eBioscience for human CD4+ T cells; RM4-5, eBioscience for mouse CD4+ T cells) or anti-CD8-APC (SK1, eBioscience for human CD8+ T cells; 53-6.7, eBioscience for mouse CD8+ T cells) and then analyzed for CFSE dilution by flow cytometry.

DD1α = test: Ig fusion protein-pull down assay; format: binding, human
Protocol: FIGS. 6A-6E show physical association of DD1α with PD1 but not with PD-L1. (FIG. 6A) Interaction of DD1α with PD1 or DD1α. […] The bound Ig fusion proteins were detected with anti-Ig-APC. Empty vector (pcDNA3.1)-transfected cells stained with Ig proteins are shown as a negative control (gray filled) and other staining is shown as black open. (FIG. 6B) DD1α binds to both DD1α and PD1 on CD4+ T cells. Purified CD4+ T cells from Wt and DD1α−/− mice were assayed for binding to Ig fused DD1α or PD1 proteins. Cells were incubated with DD1α-Ig (open), PD1-Ig (open), or control Ig proteins (gray filled) and the bound Ig fusion proteins were detected by anti-Ig-APC. […] The bound Ig fusion proteins were detected by anti-Ig-APC. Binding amounts were determined by percentage of APC positive cells compared to control Ig protein-bound cells. (FIG. 6C) Ig-pulldown experiments show DD1α interaction with both DD1α and PD1. […] The bead bound proteins were eluted and determined by western blot analysis using anti-HA antibody (asterisks). (FIG. 6D) Ig fusion proteins (control Ig, DD1α-Ig, or PD1-Ig) were incubated with lysates from Nutlin-3-treated MCF7 cells and pulled down using protein A/G agarose. The bead bound proteins were eluted and detected by western blot analysis with anti-DD1α or anti-PD1 antibody (asterisk). (FIG. 6E) p53-mediated induction of PD1 and PD-L1. MCF7 cells were treated by Nutlin-3 (10 μM) for 1 to 3 days. MCF7 cells were transfected with control siRNA or p53 siRNA for 24 hours and treated with CPT (500 nM) or DMSO (control) for 1 and 2 days. The levels of indicated proteins were analyzed by western blot analysis. Total RNAs from control siRNA or p53 siRNA transfected MCF7 cells were assessed for mRNA levels of PD1 or PD-L1 by real-time quantitative PCR. PD1 or PD-L1 mRNA levels were normalized to 36B4 expression and shown as mean±SD (n=3). Protein levels of PD1 and PD-L1 were examined in EJ-p53tet cells in the absence or presence of tetracycline (tet), ZR75-1 cells treated with CPT (500 nM), or A375 cells exposed to 13 Gy ionizing irradiation for the indicated times.
Ig fusion proteins (control Ig, DD1α-Ig, or PD1-Ig) were incubated with lysates from Nutlin-3-treated MCF7 cells and pulled down using proten A/G agarose. The bead bound proteins were eluted and detected by western blot analysis with anti-DD1α or anti-PD1 antibody.
Based on the results that both PD-1 and DD1α receptors on T cells contribute to the co-inhibitory roles for DD1α(FIG. 5), it was tested whether DD1α could physically and functionally associate with PD-1 receptor. […] To confirm the specificity of this interaction, the inventors carried out Ig fusion protein-pull down assays using lysates from PD-1, DD1α, or TIM3-transfected 293T cells. […]

[3] = test system: wt- or DD1α−/− mouse CD4+ T cells; test: Ig fusion protein binding to CD4+ T cells from Wt and DD1α−/− mice
Protocol: as §1

[4] = test system: Jurkat cells expressing DD1α receptor; test: Ig fusion protein binding to Jurkat cells; settings: several concentrations; anti-Ig-APC detection
Protocol: Jurkat cells overexpressing DD1alpha (transfected with DD1alpha cDNA) or control Jurkat cells were assayed for binding to Ig-fused DD1α or PD-1 proteins. Cells were incubated with several different concentrations of DD1α-Ig (left panels) or PD1-Ig (right panels), and the bound Ig fusion proteins were detected by anti-Ig-APC. Binding amounts were determined by percentage of APC positive cells.

His-DD1α (33-194) = target: T1, His-DD1α (33-194) (human, UniProt Q9H7M9 33-194); test: GST pull-down, anti-His immunoblot
T1 construct: not shown: His tag of the pRSET vector (Invitrogen)

[5] = target: T2, DD1α-Ig fusion protein (the extracellular region of DD1α fused with the immunoglobulin G Fc segment) (human, UniProt Q9H7M9 33-194); test: DD1α-Ig-coated beads on transfected 293T cells
T2 construct: also called DD1α-Fc fusion soluble protein; Fc-tagged soluble DD1α protein; not shown: mouse IgG-Fc region of the pCMV6-AC-FC vector (OriGene)
Description: Scale bar, 50 μm. […] Scale bar, 100 μm. […] Scale bar, 50 μm.

Sequence of mouse DD1α on mouse cells (CD4+ and CD8+ T cells, thymocytes, bone marrow-derived macrophages) (mouse) (Q9D659 33-308): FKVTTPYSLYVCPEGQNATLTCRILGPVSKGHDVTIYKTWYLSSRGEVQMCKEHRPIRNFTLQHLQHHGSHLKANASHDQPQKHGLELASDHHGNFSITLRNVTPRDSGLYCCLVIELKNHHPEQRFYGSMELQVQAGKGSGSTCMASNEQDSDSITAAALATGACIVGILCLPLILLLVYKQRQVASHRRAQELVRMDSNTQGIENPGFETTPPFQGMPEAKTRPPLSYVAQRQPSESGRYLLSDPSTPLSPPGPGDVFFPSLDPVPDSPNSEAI

COc1ccc(C2=N[C@@H](c3ccc(Cl)cc3)[C@@H](c3ccc(Cl)cc3)N2C(=O)N2CCNC(=O)C2)c(OC(C)C)c1 [Nutlin-3]
CTLA-4 and ICOSL protein levels (MCF7 cells): did not respond | PD-1 and PD-L1 protein levels (MCF7 cells): induced

DD1α-Ig as used on mouse T cells (Fc fusion)
inhibition of anti-CD3-induced proliferation of DD1α-/- mouse CD4+ or CD8+ T cells [1]: 30% | inhibition of anti-CD3-induced proliferation of Wt mouse CD4+ or CD8+ T cells [1]: 50%

PD-1-Ig as used on mouse T cells (Fc fusion)
inhibition of anti-CD3-induced proliferation of mouse CD4+ T cells [1]: 45% | reversal of PD-1-Ig-mediated inhibition in DD1α-/- CD4+ T cells [1]: 30%

PD-1-Ig: Recombinant human or mouse PD-1-Ig fusion protein from R&D Systems [reference compound]
reversal of PD-1-Ig-mediated inhibition of CD4+ T cell stimulation ([2]; DD1α−/− CD4+ T cells): ~30% | inhibition of anti-CD3-induced CD4+ T cell proliferation ([2]; mouse CD4+ T cells, wt): ~45% | pull down of DD1α (DD1α; lysates from transfected 293T cells): pulled down | pull down of endogenous DD1α receptor (DD1α; lysates of Nutlin-3-treated MCF7 cells): detected | binding to the surface of DD1α−/− CD4+ T cells compared with wt-CD4+ T cells [3]: significantly lower | binding to Jurkat cells expressing DD1α receptor [4]: bind

B1: GST-DD1α (215-311), the cytoplasmic region (other)
chain: VYKQRQAASNRRAQELVRMDSNIQGIENPGFEASPPAQGIPEAKVRHPLSYVAQRQPSESGRHLLSEPSTPLSPPGPGDVFFPSLDPVPDSPNFEVI
notes: also called the cytoplasmic region of DD1α (GST fusion); not shown: glutathione S-transferase tag of the pGEX-6P-1 vector
binding result (His-DD1α (33-194)): no binding

B2: DD1α-ΔIgV (immunoglobulin V domain (aa 45-168)-deleted mutant) expressed on transfected cells (receptor)
chain: FKVATPYSLYVCQTGKDAPSNCVVYPSSSQDSENITAAALATGACIVGILCLPLILLLVYKQRQAASNRRAQELVRMDSNIQGIENPGFEASPPAQGIPEAKVRHPLSYVAQRQPSESGRHLLSEPSTPLSPPGPGDVFFPSLDPVPDSPNFEVI
notes: signal peptide 1-32 left out; also called mutant lacking the IgV domain; IgV-deleted DD1α
binding result [5]: no binding

B3: GST-DD1α-ΔIgV (33-311, ΔIgV) (other)
chain: B2 chain
notes: also called IgV-deleted mutant; IgV-deleted DD1α (GST fusion); not shown: N-terminal GST tag and linker of pGEX-6P-1
binding result (His-DD1α (33-194)): no binding

— patent US20170184604A1, “DD1ALPHA RECEPTOR AND USES THEREOF IN IMMUNE DISORDERS” (THE GENERAL HOSPITAL CORPORATION, priority 2014, published 2017)
